# Reference: patent US20220288207A1, “PHOTO INDUCED CONTROL OF PROTEIN DESTRUCTION” (Beth Israel Deaconess Medical Center, Inc., priority 2019, published 2022)
# Entries after “also recorded” stand apart in the source; their conditions may differ.
# Legend:
# MM1S cells = assay: CCK-8 cell viability assay, MM1S cells; format: cell-based; settings: MM1S-CRBN+/+ and MM1S-CRBN−/− cells, 72 hours, without UVA irradiation
# Procedure: (§1) Human embryonic kidney 293T (HEK293T) cells and HEK293FT were maintained in Dulbecco's Modified Eagle's Medium (DMEM) containing 10% fetal bovine serum (FBS), 100 Units of penicillin and […] streptomycin. MM.1S, MT2, C4-2, NCI-H2228 and NCI-H3122 cells were cultured in RPMI1640 containing 10% fetal bovine serum (FBS), 100 Units of penicillin and 100 μg/ml streptomycin. 293FT^CRBN+/+, 293FT^CRBN+/+ , MM.1S^CRBN+/+ and MM.1S^CRBN−/− cells were provided Dr. William G. Kaelin (Dana-Farber Cancer Institute). For UVA irradiation, cells were pretreated with opto-PROTACs for 2-4 hours, and then subjected to UVA irradiation for indicated durations.
# (§2) Cell in 96-well plates were incubated with 10 ul/well of CCK-8 solution and incubated for 2 hours, followed by the measurement of optical density using a microplate reader with a 450 nm filter (O.D. 450).
# IKZF1 = IKZF1 (Homo sapiens, UniProt Q13422+Q96SW2); assay: In vivo ubiquitination assay of IKZF1 by CRBN in HEK293T cells (Ni-NTA pull down); format: cell-based; design: expressed in transfected cells; host or cells: HEK293T; settings: without UVA irradiation
# Procedure: (§3) Briefly, HEK293T cells were transfected with Flag-CRBN, His-ubiquitin and HA-IKZF1 or GFP-BRD2 or GFP-BRD3. 24 hours after transfection, pomalidomide, opto-pomalidomide, dBET1 or opto-dBET1 were added to the cell culture together with 10 μM MG132 for 12 hours and cells were harvested in denatured buffer A (6 M guanidine-HCl, pH 8.0, 0.1 M Na2HPO4/NaH2PO4, 10 mM imidazole). After sonication, the ubiquitinated proteins were purified by incubation with Ni-NTA matrices for 3 hours at room temperature. The pull-down products were washed sequentially twice in buffer A, twice in buffer ANTI mixture (buffer A: buffer TI=1:3) and once in buffer TI (25 mM Tris-HCl, pH 6.8, 20 mM imidazole). The poly-ubiquitinated proteins were separated by SDS-PAGE for immunoblot analysis.
# [1] = UV-VIS absorption spectrum; format: physicochemical; settings: in DMSO
# Procedure: (§4) UV-Vis spectrometry was performed on a NanoDrop-2000 UV-Visible Spectrophotometer. Pomalidomide, opto-pomalidomide, dBET1, opto-dBET1, dALK and opto-dALK were dissolved in DMSO and diluted to indicated concentration, followed by UVA irradiation for indicated duration of time. Then the samples were subjected to UV-Vis spectrometry analysis. Pomalidomide and opto-pomalidomide mixture solutions were made with the indicated ratio. Absorption values at 364 nm were measured to draw standard curve. dBET1 and opto-dBET1 mixture solution were made with the indicated ratios. Absorption values at 340 nm were measured to draw standard curve. dALK and opto-dALK mixture solution were made with indicated ratio. Absorption values at 370 nm were measured to draw standard curve.
# CRBN and IKZF1 = target: T1, CRBN and IKZF1 (Homo sapiens, UniProt Q13422+Q96SW2); assay: CRBN-IKZF1 interaction, Flag-IP and immunoblot in HEK293T cells; format: cell-based; settings: without UVA irradiation, 10 μM MG132 12 hours
# T1 construct: expressed in transfected cells; host or cells: HEK293T
# Procedure: (§5) MM.1S, MT2, C4-2, NCI-H2228 and NCI-H3122 cells were cultured in RPMI1640 containing 10% fetal bovine serum (FBS), 100 Units of penicillin and 100 μg/ml streptomycin. […] For UVA irradiation, cells were pretreated with opto-PROTACs for 2-4 hours, and then subjected to UVA irradiation for indicated durations.
# (§6) Cells were lysed in EBC lysis buffer (50 mM Tris pH 7.5, 120 mM NaCl, 0.5% NP-40), supplemented with protease inhibitors (cOmplete Mini, Roche) and phosphatase inhibitors (phosphatase inhibitor cocktail set I and II, Calbiochem). The protein concentrations of the lysates were measured using the Bio-Rad protein assay reagent on a Beckman Coulter DU-800 spectrophotometer. The lysates were then resolved by sodium dodecylsulfate-polyacrylamide gel ectrophoresis (SDS-PAGE) and immunoblotted with indicated antibodies. For immunoprecipitation, 1 mg lysates were incubated with the appropriate sepharose beads for 4 h at 4° C. Immuno-complexes were washed four times with NETN lysis buffer (20 mM Tris, pH 8.0, 100 mM NaCl, 1 mM EDTA and 0.5% NP-40) before being resolved by SDS-PAGE and immunoblotted with indicated antibodies.
# IKZF1/3 = IKZF1/3 degradation, immunoblot of MM1S cells; format: cell-based; settings: MM1S-CRBN+/+ vs. MM1S-CRBN−/− cells, 12 hours, without UVA irradiation; opto-drug up to 10-fold excess
# Procedure: as §5, §6
# BRD3/4 = BRD3/4 degradation, immunoblot of 293FT cells; format: cell-based, Human
# Procedure: as §1, §6
# C4-2 cells = assay: CCK-8 cell viability assay, C4-2 cells; format: cell-based
# Procedure: as §1, §2
# BRD2 and BRD3 = assay: In vivo ubiquitination assay of BRD2 and BRD3 by CRBN in HEK293T cells (Ni-NTA pull down); format: cell-based, Human
# Procedure: as §3, with “Denatured in vivo ubiquitination assays were performed as described in H. Inuzuka et al., Cell 150 (2012): 179, hereby incorporated by reference in its entirety and specifically in relation to ubiquitination assays. Briefly,” for “Briefly,”
# HEK293FT cells = assay: CCK-8 cell viability assay, HEK293FT cells; format: cell-based, Human
# Procedure: as §1, §2
# NCI-H2228 cells = assay: CCK-8 cell viability assay, NCI-H2228 cells; format: cell-based
# Procedure: as §1, §2
# NCI-H3122 cells = assay: CCK-8 cell viability assay, NCI-H3122 cells; format: cell-based
# Procedure: as §1, §2
# [2] = Uncaging (photolysis) by UVA irradiation in vitro, UV-VIS absorption / UPLC-MS analysis; format: physicochemical; settings: 1 mM, UVA 365 nm, time course
# Procedure: HPLC spectra were acquired using an Agilent 1200 Series system with DAD detector for all the intermediates and Opto-PROTACs below. Chromatography was performed on a 2.1×150 mm Zorbax 300SB-C18 5 μm column with water containing 0.1% formic acid as solvent A and acetonitrile containing 0.1% formic acid as solvent B at a flow rate of 0.4 ml/min. The gradient program was as follows: 1% B (0-1 min), 1-99% B (1-4 min), and 99% B (4-8 min). High-resolution mass spectra (FIRMS) data were acquired in positive ion mode using an Agilent G1969A API-TOF with an electrospray ionization (ESI) source. Nuclear Magnetic Resonance (NMR) spectra were acquired on a Bruker DRX-600 spectrometer with 600 MHz for proton (^1H NMR) and 151 MHz for carbon (^13C NMR); chemical shifts are reported in (δ). Preparative HPLC was performed on Agilent Prep 1200 series with UV detector set to 254 nm. Samples were injected onto a Phenomenex Luna 250×30 mm, 5 μm, C18 column at room temperature. The flow rate was 40 ml/min. A linear gradient was used with 10% of acetonitrile (A) in H2O (with 0.1% TFA) (B) to 100% of acetonitrile (A). HPLC was used to establish the purity of target compounds. All final compounds had >95% purity using the HPLC methods described above.
# as §4
# [3] = 293FT-CRBN+/+ vs. 293FT-CRBN−/− cells, 12 hours, without UVA irradiation
# [4] = HEK293FT (293FT-CRBN+/+ and CRBN−/−) cells, without UVA irradiation
# [5] = 72 hours, without UVA irradiation
# [6] = UVA irradiation (365 nm) 15 minutes
# T1 sequence (Q96SW2 whole entry): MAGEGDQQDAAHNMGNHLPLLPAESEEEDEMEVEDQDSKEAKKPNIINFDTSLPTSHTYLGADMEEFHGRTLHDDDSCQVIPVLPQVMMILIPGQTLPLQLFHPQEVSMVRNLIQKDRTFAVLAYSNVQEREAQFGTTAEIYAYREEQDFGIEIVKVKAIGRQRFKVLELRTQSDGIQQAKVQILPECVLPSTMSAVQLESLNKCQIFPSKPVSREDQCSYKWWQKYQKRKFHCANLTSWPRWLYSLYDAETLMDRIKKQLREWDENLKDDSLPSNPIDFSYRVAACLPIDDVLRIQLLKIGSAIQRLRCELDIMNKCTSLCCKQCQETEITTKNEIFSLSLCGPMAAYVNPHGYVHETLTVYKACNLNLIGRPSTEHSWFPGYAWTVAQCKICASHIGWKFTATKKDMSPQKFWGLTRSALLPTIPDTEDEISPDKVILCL
# T1 sequence (Q13422 whole entry): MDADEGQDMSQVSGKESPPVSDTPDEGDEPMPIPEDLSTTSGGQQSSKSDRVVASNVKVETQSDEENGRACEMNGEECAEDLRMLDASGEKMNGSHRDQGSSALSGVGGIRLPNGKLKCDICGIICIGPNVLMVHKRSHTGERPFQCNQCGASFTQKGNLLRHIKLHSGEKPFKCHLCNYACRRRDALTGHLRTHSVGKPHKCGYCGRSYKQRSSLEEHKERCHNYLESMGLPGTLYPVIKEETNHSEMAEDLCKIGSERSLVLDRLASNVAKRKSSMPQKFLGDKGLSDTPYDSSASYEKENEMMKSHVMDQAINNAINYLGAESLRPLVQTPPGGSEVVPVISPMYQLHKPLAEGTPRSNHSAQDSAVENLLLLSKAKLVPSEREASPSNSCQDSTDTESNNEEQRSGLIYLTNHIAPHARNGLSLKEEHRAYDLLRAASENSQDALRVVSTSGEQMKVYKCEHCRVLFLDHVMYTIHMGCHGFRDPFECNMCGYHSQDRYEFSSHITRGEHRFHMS
# T1 sequence (Q16531 whole entry partner): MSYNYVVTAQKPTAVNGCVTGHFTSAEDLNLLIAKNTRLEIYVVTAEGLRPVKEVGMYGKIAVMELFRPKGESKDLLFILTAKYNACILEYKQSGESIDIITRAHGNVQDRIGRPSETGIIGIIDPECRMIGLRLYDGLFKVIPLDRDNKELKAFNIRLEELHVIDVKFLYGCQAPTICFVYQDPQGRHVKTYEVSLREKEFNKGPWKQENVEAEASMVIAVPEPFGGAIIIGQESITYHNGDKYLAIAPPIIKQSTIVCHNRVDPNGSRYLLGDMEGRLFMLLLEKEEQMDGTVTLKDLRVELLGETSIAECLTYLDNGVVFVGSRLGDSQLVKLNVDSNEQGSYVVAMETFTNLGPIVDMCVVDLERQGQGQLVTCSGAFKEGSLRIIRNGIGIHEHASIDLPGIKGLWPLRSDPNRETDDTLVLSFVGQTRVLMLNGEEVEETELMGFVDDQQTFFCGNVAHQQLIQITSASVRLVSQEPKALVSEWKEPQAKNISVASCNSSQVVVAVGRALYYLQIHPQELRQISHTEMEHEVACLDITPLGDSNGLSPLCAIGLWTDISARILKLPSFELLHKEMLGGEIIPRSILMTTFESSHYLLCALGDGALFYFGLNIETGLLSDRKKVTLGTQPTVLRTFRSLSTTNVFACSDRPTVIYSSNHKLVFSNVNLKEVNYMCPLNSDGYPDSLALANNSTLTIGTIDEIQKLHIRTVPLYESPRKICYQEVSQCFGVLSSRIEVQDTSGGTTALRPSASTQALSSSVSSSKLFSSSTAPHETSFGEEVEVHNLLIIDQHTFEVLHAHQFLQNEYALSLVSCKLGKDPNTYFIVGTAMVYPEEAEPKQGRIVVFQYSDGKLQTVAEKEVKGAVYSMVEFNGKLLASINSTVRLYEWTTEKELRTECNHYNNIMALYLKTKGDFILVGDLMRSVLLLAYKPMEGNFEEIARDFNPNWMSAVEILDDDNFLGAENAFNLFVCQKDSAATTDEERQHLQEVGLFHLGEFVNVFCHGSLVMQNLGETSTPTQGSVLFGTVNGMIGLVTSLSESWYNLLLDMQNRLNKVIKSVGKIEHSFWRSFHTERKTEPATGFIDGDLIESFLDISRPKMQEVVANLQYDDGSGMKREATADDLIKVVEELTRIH
# IKZF1, sequence (Q13422 whole entry): as the sequence (Q13422 whole entry) above
# IKZF1, sequence (Q96SW2 whole entry): as the sequence (Q96SW2 whole entry) above
# IKZF1, sequence (Q16531 whole entry partner): as the sequence (Q16531 whole entry partner) above
compound,measurement,setting,value
"Nc1cccc2c1C(=O)N(C1CCC(=O)NC1=O)C2=O (centres unmarked) [pomalidomide, reference compound]",cell proliferation (CCK-8),MM1S cells,reduces MM1S cell proliferation in a CRBN-dependent manner
same,ubiquitination of IKZF1 by CRBN,IKZF1,"subsequently transfer the ubiquitin chain onto the target proteins, IKZFs"
same,maximum in absorption of UV-VIS absorption spectrum,[1],390 nm
same,interaction between CRBN and IKZF1,CRBN and IKZF1,bound both CRBN and IKZF1/3
same,degradation of IKZF1/3,IKZF1/3,induced IKZF1/3 degradation in a CRBN-dependent manner
"Cc1sc2c(c1C)C(c1ccc(Cl)cc1)=N[C@@H](CC(=O)NCCCCNC(=O)COc1cccc3c1C(=O)N(C1CCC(=O)NC1=O)C3=O)c1nnc(C)n1-2 (some centres unmarked) [dBET1, reference compound]",degradation of BRD3/4,BRD3/4; [3],degraded BRD 3/4 in a CRBN-dependent manner
same,cell proliferation (CCK-8),C4-2 cells; without UVA irradiation,inhibited cell proliferation in a dose-dependent manner
same,ubiquitination of BRD2 and BRD3 by CRBN,BRD2 and BRD3; without UVA irradiation,function as a molecular linker between a protein targeting moiety that recruits bromodomain family members (BRD2/3) (JQ1 derived) and CRBN-mediated ubiquitination
same,cell proliferation (CCK-8),HEK293FT cells; [4],inhibited cell proliferation in a dose-dependent manner; also recorded: inhibits cell proliferation in 293FT-CRBN^+/+ but not 293FT-CRBN^−/− cells
COc1cc(COC(=O)N2C(=O)CCC(N3C(=O)c4cccc(NCCNC(=O)CN5CCC(c6cc(OC(C)C)c(Nc7ncc(Cl)c(Nc8ccccc8S(=O)(=O)C(C)C)n7)cc6C)CC5)c4C3=O)C2=O)c([N+](=O)[O-])cc1OC (centres unmarked) [opto-dALK],cell proliferation (CCK-8),NCI-H2228 cells; [5],inefficient in inhibiting the proliferation of H2228 (C) or NCI-3122 (D)
same,cell proliferation (CCK-8),NCI-H2228 cells; [6],required prior uncaging by UVA irradiation; also recorded: inhibits H2228 (E) or NCI-3122 (F) cell proliferation in a dose-dependent manner
same,cell proliferation (CCK-8),NCI-H3122 cells; [5],inefficient in inhibiting the proliferation of H2228 (C) or NCI-3122 (D)
same,cell proliferation (CCK-8),NCI-H3122 cells; [6],required prior uncaging by UVA irradiation; also recorded: inhibits H2228 (E) or NCI-3122 (F) cell proliferation in a dose-dependent manner
same,uncaging (photolysis) by UVA irradiation in vitro,[2],efficiently uncaged by UVA irradiation in vitro
COc1cc(COC(=O)N2C(=O)CCC(N3C(=O)c4cccc(OCC(=O)NCCCCNC(=O)C[C@@H]5N=C(c6ccc(Cl)cc6)c6c(sc(C)c6C)-n6c(C)nnc65)c4C3=O)C2=O)c([N+](=O)[O-])cc1OC (some centres unmarked) [opto-dBET1],degradation of BRD3/4,BRD3/4; [3],largely inert and incapable of degrading BRD3/4
same,degradation of BRD3/4,"BRD3/4; HEK293FT cells, UVA irradiation (365 nm) 5 or 15 minutes",leading to the degradation of BRD3/4
same,cell proliferation (CCK-8),C4-2 cells; [6],could be activated by UVA irradiation to suppress cell proliferation; also recorded: inhibits HEK293FT (J) and C4-2 (K) cell proliferation in a dose-dependent manner
same,cell proliferation (CCK-8),C4-2 cells; without UVA irradiation,relatively less toxic
same,ubiquitination of BRD2 and BRD3 by CRBN,BRD2 and BRD3; UVA irradiation (365 nm) 15 min,regained its ability to promote ubiquitination of BRDs in cells
same,ubiquitination of BRD2 and BRD3 by CRBN,BRD2 and BRD3; without UVA irradiation,incapable of guiding the ubiquitination of BRD2 and BRD3
same,cell proliferation (CCK-8),HEK293FT cells; [4],relatively less toxic; also recorded: did not inhibit cell proliferation in 293FT-CRBN^+/+ and 293FT-CRBN^−/− cells
same,cell proliferation (CCK-8),"HEK293FT cells; HEK293FT cells, UVA irradiation (365 nm) 15 minutes",could be activated by UVA irradiation to suppress cell proliferation; also recorded: inhibits HEK293FT (J) and C4-2 (K) cell proliferation in a dose-dependent manner
same,uncaging (photolysis) by UVA irradiation in vitro,[2],efficiently uncaged by UVA irradiation in vitro
